# Data published in US20210278408A1, “METHODS OF TREATMENT OF CANCER WITH SUBSTITUTED PYRROLE AND PYRAZOLE COMPOUNDS AND DIAGNOSIS OF CANCERS SUSCEPTIBLE TO TREATMENT WITH SUBSTITUTED PYRROLE AND PYRAZOLE COMPOUNDS” (Bantam Pharmaceutical, LLC, priority 2018, published 2021).
# Read-outs that look alike come from different tables or passages of the source.
# Tests used:
# [1] = system: HCT-116; assay: Anti-proliferative activity, CellTiter-Glo, 72 hours: HCT-116; format: cell-based, human; conditions: Homo sapiens, HCT-116 (colorectal cancer), Cell-Titre-Glo
# Description: (§1) Anti-proliferative activity of BTM compounds. The anti-proliferative activities of Compound A197 and Compound B19 were compared to 4EGI-1 (a known cancer cell growth inhibitor) in a panel of 99 tumor lines. Methods: A panel of 96 tumor and 3 normal cell lines were tested for sensitivity to the test compound. The cell lines were cultured in standard media and pipetted into 96-well plates at the required plating densities. The cells were acclimated for 24 hours prior to compound testing. Compound was prepared as a stock of 20 mM in DMSO. To prepare dose response curves compound was serially diluted in DMSO and dispensed into the plate wells using a Tecan D300e digital dispenser. The final DMSO concentration was 0.15%. After 72 hours of incubation cell number was determined using the CellTiter-Glo® protocol according to the manufacturers instructions (Promega). In this assay, ATP is measured as a surrogate of cell number. The activity of the compound is determined by comparing untreated cells with treated cells and calculating the % of signal retained. Compound activity is measured as an EC50 of maximum level of efficacy and the two are used to compute an activity area. The table below provides a comparison of activity in a data sample.
# [2] = system: Jurkat; assay: Anti-proliferative activity, CellTiter-Glo, 72 hours: Jurkat; format: cell-based, human; conditions: Homo sapiens, Jurkat (T cell leukemia), Cell-Titre-Glo
# Description: as §1
# [3] = system: LoVo; assay: Anti-proliferative activity, CellTiter-Glo, 72 hours: LoVo; format: cell-based, human; conditions: Homo sapiens, LoVo (colorectal cancer), Cell-Titre-Glo
# Description: as §1
# [4] = system: NCI-H2122; assay: Anti-proliferative activity, CellTiter-Glo, 72 hours: NCI-H2122; format: cell-based, human; conditions: Homo sapiens, NCI-H2122 (non-small cell lung cancer), Cell-Titre-Glo
# Description: as §1
# [5] = system: NCI-H460; assay: Anti-proliferative activity, CellTiter-Glo, 72 hours: NCI-H460; format: cell-based, human; conditions: Homo sapiens, NCI-H460 (non-small cell lung cancer), Cell-Titre-Glo
# Description: as §1
# [6] = system: HUVEC; assay: Anti-proliferative activity, CellTiter-Glo, 72 hours: HUVEC; format: cell-based, human; conditions: Homo sapiens, HUVEC (primary endolithial cells), Cell-Titre-Glo
# Description: as §1
# [7] = system: NHLF; assay: Anti-proliferative activity, CellTiter-Glo, 72 hours: NHLF; format: cell-based; conditions: NHLF (human lung fibroblast), Cell-Titre-Glo
# Description: as §1
# [8] = system: HUH-6 CLONE5; assay: Cell viability, CellTiter-Glo, 96 h: HUH-6 CLONE5; format: cell-based; conditions: for IC50: read-out: Absolute IC50
# Description: (§2) Viability was determined by using the 50% inhibitory concentration (IC50) as determined with the CellTiter-Glo® Viability Assay (Promega). All cells were cultured under standard conditions in media supplemented with 10-15% Fetal Bovine Serum, at a temperature of 37° C., 5% CO2 and 95% humidity.
# (§3) Cells were harvested during the logarithmic growth period, counted, and the cell concentration adjusted to 4.44×10^4 cells/mL using culture medium. A final cell density of 4×10^3 cells/well was added in a 90 μL cell suspension to plates A and B as shown.
# (§4) Test plate B was incubated for 96 h in the humidified incubator at 37° C. with 5% CO2.
# (§5) Following the incubation, the plate was equilibrated at room temperature for thirty minutes. CellTiter-Glo® (50 μL) was added to each well of the plate and contents mixed for five minutes on an orbital shaker to induce cell lysis. The luminescent signal was allowed to stabilize at room temperature for 20 minutes and the luminescence recorded.
# (§6) IC50 (EC50) was calculated using a dose-response curve, fitted using a nonlinear regression model with a sigmoidal dose response. Survival rate was calculated using the formula:
# (§7) The Surviving rate (%)=(LumTest article−LumMedium control)/(LumNon-treated−LumMedium control)×100%.
# (§8) Absolute IC50 (EC50) was calculated according to the dose-response curve generated by the statistical software (GraphPad Prism 5.0).
# [9] = system: D283 Med; assay: Cell viability, CellTiter-Glo, 96 h: D283 Med; format: cell-based; conditions: for IC50: read-out: Absolute IC50
# Description: as §2, §3, §4, §5, §6, §7, §8
# [10] = system: 8305C; assay: Cell viability, CellTiter-Glo, 96 h: 8305C; format: cell-based; conditions: for IC50: read-out: Absolute IC50
# Description: as §2, §3, §4, §5, §6, §7, §8
# [11] = system: 143B; assay: Cell viability, CellTiter-Glo, 96 h: 143B; format: cell-based; conditions: for IC50: read-out: Absolute IC50
# Description: as §2, §3, §4, §5, §6, §7, §8
# [12] = system: LS 174T; assay: Cell viability, CellTiter-Glo, 96 h: LS 174T; format: cell-based
# Description: as §2, §3, §4, §5, §6, §7, §8
# [13] = system: Kinase; assay: In vitro assays: kinase; format: biochemical; conditions: 63 kinase family members including Raf, MEK, ERK, AKT, CDK1-4
# [14] = system: SU-DHL-2; assay: Cell proliferation, Cell-Titre Glo, 72 hours: SU-DHL-2; format: cell-based; conditions: Homo sapiens, mean ± std. dev.
# Description: NHLF, BJAB, SU-DHL-2, and HCT-116 cells were treated with Compound A197 for 4 hours prior to lysate harvest. Total cellular glutathione (GSH) levels were determined using a luminescent endpoint (GSH-Glo, Promega). Cell proliferation was determined using Cell-Titre Glo following 72 hours of compound treatment. All data shown is mean±SD of three biological replicates.
# [15] = Cell No. 407, read-out: Absolute IC50
SMILES,IC50 [1] [nM],IC50 [2] [nM],IC50 [3] [nM],IC50 [4] [nM],IC50 [5] [nM],IC50 [6] [nM],IC50 [7] [nM],% inhibition at top conc. [8] [%],IC50 [8] [nM],% inhibition at top conc. [9] [%],% inhibition at top conc. [10] [%],% inhibition at top conc. [11] [%],% inhibition at top conc. ([12]; Cell No. 406) [%],% inhibition at top conc. ([12]; Cell No. 407) [%],"IC50 [12, 15] [nM]",other results
"COC(=O)c1c(-c2cccc(F)c2)c(C)nn1-c1nc(C2=CCC(C(F)(F)F)CC2)c(SC(C)C)s1 (single isomer, unassigned) [Compound B19, methyl 4-(3-fluorophenyl)-1-(5-(isopropylthio)-4-(4-(trifluoromethyl)cyclohex-1-en-1-yl)thiazol-2-yl)-3-methyl-1H-pyrazole-5-carboxylate]",343,166,116,184,167,> 30000,> 30000,,,,,,,,,
"N.N.[Cl][Pt][Cl] [Cisplatin, reference compound]",,,,,,,,99.43,6330,99.39,99.17,99.94,96.60,96.74,8540,"IC50 [9]: 700 nM; IC50 [10]: 6140 nM; IC50 [11]: 3200 nM; IC50 ([12]; Cell No. 406, read-out: Absolute IC50): 5890 nM"
"Cc1nn(-c2nc(-c3ccc(C(F)(F)F)cc3)c(SC(C)C)s2)c(C(=O)O)c1-c1cccc(F)c1 [Compound A197, 4-(3-fluorophenyl)-1-(5-(isopropylthio)-4-(4-(trifluoromethyl)phenyl)thiazol-2-yl)-3-methyl-1H-pyrazole-5-carboxylic acid]",295,179,123,200,156,> 30000,> 30000,11.18,> 30000,66.67,33.79,27.55,15.79,27.00,> 30000,"Outcome: Kinase [13]: No activity on 63 kinase family members including Raf,; IC50 [14]: 180 ± 60 nM; IC50 ([9]; Homo sapiens): > 30000 nM; IC50 ([10]; Homo sapiens): > 30000 nM; IC50 ([11]; Homo sapiens): > 30000 nM; IC50 ([12]; Homo sapiens, LS174T, Cell No. 406, read-out: Absolute IC50): > 30000 nM"
